Holding throughout (format): cell-based
Details in all cases: Homo sapiens

The subject of assay [1] is BT-474 cells (HER2 overexpressing cell line). In words: BT-474 cell proliferation inhibitory activity (CellTiter-Glo, 120 hours). The procedure: To evaluate the cell proliferation inhibitory activity of the compound according to the present invention on HER2 and EGFR kinases, the following method was performed using HER2 overexpressing cell lines (SK-BR-3, BT-474, and N-87) and EGFR expressing cell line (HaCaT).
McCOY'S 5A supplemented with 10% FBS was used for SK-BR-3 cells, RPMI-1640 medium supplemented with 20% FBS was used for BT-474 cancer cells, and RPMI-1640 medium supplemented with 10% FBS was used for N-87 cancer cells. DMEM supplemented with 10% FBS was used for HaCaT cells.
For SK-BR-3 cells, 5000 cells were aliquoted into each well of a white clear bottom 96 well plate (Corning) 48 hours before treatment with the compounds of Examples. For BT-474 cells, 5000 cells were aliquoted into each well of a white clear bottom 96 well plate (Corning) 48 hours before treatment with the compounds of Examples. For N-87 cells, 5000 cells were aliquoted into each well of a white clear bottom 96 well plate (Corning) 24 hours before treatment with the compounds of Examples. For HaCaT cells, 3000 cells were aliquoted into each well of a white clear bottom 96 well plate (Corning) 24 hours before treatment with the compounds of Examples. For SK-BR-3 cells and BT-474 cells, the compounds of Examples were diluted in dimethyl sulfoxide (three-fold dilution, a total of 11 concentrations) and injected each in an amount of 1 μl to a final concentration of 0.2 nM to 10 μM. For N-87 cells, the compounds of Examples were diluted in dimethyl sulfoxide (five-fold dilution, a total of 11 concentrations) and injected each in an amount of 0.5 μl to a final concentration of […] to 5 μM. For HaCaT cells, the compounds of Examples were diluted in dimethyl sulfoxide (three-fold dilution, a total of 11 concentrations) and injected each in an amount of 0.5 μl to a final concentration of 0.8 nM to 45 μM. For the measurement of living cells, the cells were stored at room temperature for 10 minutes using CellTiter-Glo cell viability reagent (Promega) after a certain period of time (SK-BR-3: 120 hours, BT-474: 120 hours, N-87: 72 hours, and HaCaT: 72 hours) post treatment with the compounds of Examples, and the luminescence intensity thereof was measured using a reader (SynergyNeo, Biotek). Each test was repeated three times.
The result values were calculated as a cell growth rate (%) compared to those of the control group. A graph was created using the GraphPad Prism version 5.0 program, and GI50 values were calculated.

The test system of assay [2] is HaCaT cells (EGFR expressing cell line). Description: HaCaT cell proliferation inhibitory activity (CellTiter-Glo, 72 hours). The essentials:
(§1)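 Luminescent viability read-out, growth % vs control → GI50, n=3. Seeding: SK-BR-3/BT-474 5000 cells, 48 h pre-plating; N-87 5000, 24 h; HaCaT 3000, 24 h. Dose ranges: 0.2 nM–10 μM (SK-BR-3, BT-474; 3-fold), […]–5 μM (N-87; 5-fold), 0.8 nM–45 μM (HaCaT; 3-fold).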

The subject of assay [3] is SK-BR-3 cells (HER2 overexpressing cell line). In words: SK-BR-3 cell proliferation inhibitory activity (CellTiter-Glo, 120 hours). The essentials:
as §1

Each structure is given as a SMILES string.

Consider `C=CC(=O)N1CCC(Oc2cc3c(Nc4cc(-c5ccc(F)c(OC)c5F)ccc4OC)ncnc3cc2OC)CC1` [Example 210, 1-(4-((4-((2′,4′-difluoro-3′,4-dimethoxy-[1,1′-biphenyl]-3-yl)amino)-7-methoxy-quinazolin-6-yl)oxy)piperidin-1-yl)prop-2-en-1-one], for which the 50% growth inhibitory concentration (GI50) was at most 150 nM in assay [1] and 150 to 1000 nM in assay [2].
As for `C=CC(=O)N1CCC2(CC(Oc3cc4c(Nc5cc(-c6ccco6)ccc5OC)ncnc4cc3OC)C2)C1` (stereo not drawn) [Example 220, 1-(2-((4-((5-(furan-2-yl)-2-methoxyphenyl)amino)-7-methoxy-quinazolin-6-yl)oxy)-6-azaspiro[3.4]octan-6-yl)prop-2-en-1-one], the GI50 in assay [1] and in assay [2] was 150 to 1000 nM in each case.
Turning to `C=CC(=O)N1CCC2(CC1)CN(c1cc3c(Nc4cc(-c5ccco5)ccc4OC)ncnc3cc1OC)C2` [Example 324, 1-(2-(4-((5-(furan-2-yl)-2-methoxyphenyl)amino)-7-methoxyquinazolin-6-yl)-2,7-diazaspiro[3.5]nonan-7-yl)prop-2-en-1-one], the GI50 in assay [1] was above 1000 nM; in assay [2], 150 to 1000 nM.
Regarding `C=CC(=O)N1CCC(Oc2cc3c(Nc4cc(-c5ccc(F)c(C(F)(F)F)c5F)ccc4OC)ncnc3cc2OC)CC1` [Example 202, 1-(4-((4-((2′,4′-difluoro-4-methoxy-3-(trifluoro-methyl)′-[1,1′-biphenyl]-3-yl)amino)-7-methoxy-quinazolin-6-yl)oxy)piperidin-1-yl)prop-2-en-1-one], the GI50 in assay [1] was at most 150 nM; in assay [2] it was above 1000 nM.
Regarding `COc1cc2ncnc(Nc3cc(-c4ccco4)ccc3OC)c2cc1NC(=O)/C=C/CN1CCN(C)CC1` [Example 314, (E)-N-(4-((5-(furan-2-yl)-2-methoxyphenyl)amino)-7-methoxyquinazolin-6-yl)-4-(4-methylpiperazin-1-yl)but-2-enamide], the GI50 in assay [1] and in assay [2] was at most 150 nM throughout.
On to `C=CC(=O)N1CCC(Oc2cc3c(Nc4c(OC)ccc(-c5ccco5)c4F)ncnc3cc2OC)CC1` [Example 185, 1-(4-((4-((2-fluoro-3-(furan-2-yl)-6-methoxyphenyl)amino)-7-methoxy-quinazolin-6-yl)oxy)piperidin-1-yl)prop-2-en-1-one], for which the GI50 in assay [1] and in assay [2] was at most 150 nM in each case.
For the compound `C=CC(=O)N1CCC(Oc2cc3c(Nc4cc(-c5ccc(F)c(C(F)F)c5)ccc4OC)ncnc3cc2OC)CC1` [Example 196, 1-(4-((4-((3′-(difluoromethyl)-4′-fluoro-4-methoxy-[1,1′-biphenyl]-3-yl)amino)-7-methoxy-quinazolin-6-yl)oxy)piperidin-1-yl)prop-2-en-1-one], the results for the GI50 in assay [1] and in assay [2] were at most 150 nM and 150 to 1000 nM, respectively.
`C=CC(=O)N1CCC(Oc2cc3c(Nc4cc(-c5ccnn5C)ccc4OC)ncnc3cc2OC)CC1` [Example 75, 1-(4-((7-methoxy-4-((2-methoxy-5-(1-methyl-1H-pyrazol-5-yl)phenyl)amino)quinazolin-6-yl)oxy)piperidin-1-yl)prop-2-en-1-one]: the GI50 in assay [3] is 150 to 1000 nM; in assay [2], above 1000 nM.
The matching figures for `C=CC(=O)Nc1cc2c(Nc3cc(-c4ccco4)ccc3OC)ncnc2cc1OC` [Example 289, N-(4-((5-(furan-2-yl)-2-methoxyphenyl)amino)-7-methoxyquinazolin-6-yl)acrylamide]: at most 150 nM and at most 150 nM.
On to `C=CC(=O)N1CC(Oc2cc3c(Nc4cc(-c5ccn6ncnc6c5)ccc4OCC)ncnc3cc2OC)C1` [Example 56, 1-(3-((4-((5-([1,2,4]triazolo [1,5-a]pyridin-7-yl)-2-ethoxyphenyl)amino)-7-methoxy-quinazolin-6-yl)oxy)azetidin-1-yl)prop-2-en-1-one], for which the results for the GI50 in assay [3] and in assay [2] were 150 to 1000 nM and above 1000 nM, respectively.
Regarding `C=CC(=O)N1CC(Oc2cc3c(Nc4cc(-c5cccc(NC(=O)N6C(=O)OC[C@@H]6c6ccccc6)c5)ccc4OC)ncnc3cc2OC)C1` [Example 237, (S)-N-(3′-((6-((1-acryloylazetidin-3-yl)oxy)-7-methoxyquinazolin-4-yl)amino)-4′-methoxy-[1,1′-biphenyl]-3-yl)-2-oxo-4-phenyloxazolidin-3-carboxamide], the concentration for 50% growth inhibition (GI50) was 150 to 1000 nM in assay [3] and above 1000 nM in assay [2].
Regarding `C=CC(=O)Nc1cc2c(Nc3cc(-c4ccco4)ccc3OC)c(C#N)cnc2cc1OCC` [Example 291, N-(3-cyano-7-ethoxy-4-((5-(furan-2-yl)-2-methoxyphenyl)amino)quinolin-6-yl)acrylamide], the concentration for 50% growth inhibition (GI50) in assay [3] is above 1000 nM; in assay [2] it was at most 150 nM.
In the case of `C=CC(=O)N1CC(Oc2cc3c(Nc4cc(-c5ccoc5C)ccc4OC)ncnc3cc2OC)C1` [Example 51, 1-(3-((7-methoxy-4-((2-methoxy-5-(2-methylfuran-3-yl)phenyl)amino)quinazolin-6-yl)oxy)azetidin-1-yl)prop-2-en-1-one], the GI50 in assay [3] and in assay [2] was at most 150 nM throughout.
Take `C=CC(=O)N1CC(Oc2cc3c(Nc4cc(-c5ccc(F)c(F)c5)ccc4OC)ncnc3cc2OC)C1` [Example 29, 1-(3-((4-((3′,4′-difluoro-4-methoxy-[1,1′-biphenyl]-3-yl)amino)-7-methoxy-quinazolin-6-yl)oxy)azetidin-1-yl)prop-2-en-1-one]: the GI50 in assay [3] and in assay [2] was at most 150 nM in each case.
As to `C=C(CN(C)C)C(=O)N1CCC(Oc2cc3c(Nc4cc(-c5ccco5)ccc4OC)ncnc3cc2OC)CC1` [Example 121, 2-((dimethylamino)methyl)-1-(4-((4-((5-(furan-2-yl)-2-methoxyphenyl)amino)-7-methoxy-quinazolin-6-yl)oxy)piperidin-1-yl)prop-2-en-1-one], the GI50 in assay [3] was above 1000 nM; in assay [2], at most 150 nM.
As for `C=CC(=O)N1CC(Oc2cc3c(Nc4cc(-c5ccnc6c(NC(=O)C7CC7)snc56)ccc4OC)ncnc3cc2OC)C1` [Example 234, N-(7-(3-((6-((1-acryloylazetidin-3-yl)oxy)-7-methoxyquinazolin-4-yl)amino)-4-methoxyphenyl)isothiazolo[4,3-b]pyridin-3-yl)cyclopropancarboxamide], the concentration for 50% growth inhibition (GI50) in assay [3] and in assay [2] was 150 to 1000 nM each time.
Consider `C=CC(=O)N1CC(Oc2cc3c(Nc4cc(-c5ccc(Cl)c(F)c5)ccc4OC)ncnc3cc2OC)C1` [Example 28, 1-(3-((4-((4′-chloro-3′-fluoro-4-methoxy-[1,1′-biphenyl]-3-yl)amino)-7-methoxy-quinazolin-6-yl)oxy)azetidin-1-yl)prop-2-en-1-one], for which the GI50 in assay [3] and in assay [2] was 150 to 1000 nM each time.
As to `C=CC(=O)Nc1cc2c(Nc3cc(-c4ccco4)ccc3OC)ncnc2cc1OCCOC` [Example 275, N-(4-((5-(furan-2-yl)-2-methoxyphenyl)amino)-7-(2-methoxyethoxy)quinazolin-6-yl)acrylamide], the concentration for 50% growth inhibition (GI50) in assay [3] and in assay [2] was at most 150 nM throughout.
As to `C=CC(=O)N1C2CCC1CC(Oc1cc3c(Nc4cc(-c5ccco5)ccc4OC)ncnc3cc1OC)C2` (stereo not drawn) [Example 166, 1-(3-((4-((5-(furan-2-yl)-2-methoxyphenyl)amino)-7-methoxy-quinazolin-6-yl)oxy)-8-azabicyclo [3.2.1]octan-8-yl)prop-2-en-1-one], the GI50 in assay [3] and in assay [2] was at most 150 nM each time.
With `C=CC(=O)N1CCC(Oc2cc3c(Nc4cc(-c5cnco5)ccc4OC)ncnc3cc2OC)CC1` [Example 130, 1-(4-((7-methoxy-4-((2-methoxy-5-(oxazol-5-yl)phenyl)amino)quinazolin-6-yl)oxy)piperidin-1-yl)prop-2-en-1-one], the GI50 in assay [3] and in assay [2] was 150 to 1000 nM in each case.
With `C=CC(=O)Nc1cc2c(Nc3cc(-c4ccco4)ccc3OC)ncnc2cc1OCCCN1CCOCC1` [Example 277, N-(4-((5-(furan-2-yl)-2-methoxyphenyl)amino)-7-(3-morpholinopropoxy)quinazolin-6-yl)acrylamide], the 50% growth inhibitory concentration (GI50) in assay [3] and in assay [2] was at most 150 nM each time.

The values above are taken from patent publication US20240246940A1, “HETEROARYL DERIVATIVE COMPOUND AND USE THEREOF” (VORONOI INC., priority 2021, published 2024).
